Our source for the IC50 values is patent publication US11780840B2 (Incyte Corporation, priority 2020, dated 2023).

For experiment [1], the target named is T1, pseudo-kinase domain (JH2, amino-acids 536-812 with 3 surface mutations W659A, W777A, F794H) of human Wild Type JAK2 (Homo sapiens, UniProt O60674, F794H/W659A/W777A).
T1 construct: pseudo-kinase domain (JH2, amino-acids 536-812 with 3 surface mutations W659A, W777A, F794H); His (C); Avi (biotinylated) (C); purchased BPS Bioscience 79463; host or cells: baculovirus expression system
T1 sequence (O60674 536-812 W659A/W777A/F794H): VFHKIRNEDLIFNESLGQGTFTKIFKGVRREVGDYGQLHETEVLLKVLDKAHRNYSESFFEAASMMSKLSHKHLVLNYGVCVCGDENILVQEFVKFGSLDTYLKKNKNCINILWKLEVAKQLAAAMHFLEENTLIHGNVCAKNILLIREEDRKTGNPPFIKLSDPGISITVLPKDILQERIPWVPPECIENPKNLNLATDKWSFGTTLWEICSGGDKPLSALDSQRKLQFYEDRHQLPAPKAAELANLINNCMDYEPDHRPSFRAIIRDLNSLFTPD
Description: JAK2 LanthaScreen JH2-WT Binding Assay. As to conditions: JAK2 JH2-WT (0.145 nM), 50 nM Fluorescent JAK2-JH2 Tracer, 1 hour at 25° C.; read-out: JH2 BIND WT. The method in brief:
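Binding was measured by TR-FRET between streptavidin-Tb (0.25 nM) on biotinylated JH2 (0.145 nM) and 50 nM fluorescent tracer, with compound dose series, 1 h at 25° C; IC50 fitted.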
(In general: Time-resolved FRET reads energy transfer from a long-lived donor to a nearby acceptor.)

Experiment [2] addresses T2, pseudo-kinase domain (JH2, amino-acids 536-812 with 3 surface mutations W659A, W777A, F794H) of human V617F mutant JAK2 (Homo sapiens, UniProt O60674, F794H/V617F/W659A/W777A).
T2 construct: pseudo-kinase domain (JH2, amino-acids 536-812 with 3 surface mutations W659A, W777A, F794H); His (C); Avi (biotinylated) (C); purchased BPS Bioscience 79498; host or cells: baculovirus expression system
Description: JAK2 LanthaScreen JH2-V617F Binding Assay. As to conditions: JAK2 JH2-V617F (0.26 nM), 50 nM Fluorescent JAK2-JH2 Tracer, 1 hour at 25° C.; read-out: JH2 BIND V617F. The method in brief: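 This is a TR-FRET tracer-displacement format with a 1 h, 25 °C incubation. It combined 0.26 nM baculovirus-expressed biotinylated JH2-V617F, 50 nM fluorescent JAK2-JH2 tracer and 0.25 nM streptavidin-Tb cryptate in 50 mM Tris pH 7.5, 10 mM MgCl2, 5 mM DTT. Background came from 2 mM ATP, and IC50 values were from four-parameter dose-response fits.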

For experiment [3], the target named is T3, catalytic domain (JH1, amino acids 826-1132) of human JAK2 (Homo sapiens, UniProt O60674).
T3 construct: catalytic domain (JH1, amino acids 826-1132) of human JAK2; FLAG (N); purchased Carna Biosciences 08-445-20N; host or cells: baculovirus expression system
T3 sequence (O60674 826-1132): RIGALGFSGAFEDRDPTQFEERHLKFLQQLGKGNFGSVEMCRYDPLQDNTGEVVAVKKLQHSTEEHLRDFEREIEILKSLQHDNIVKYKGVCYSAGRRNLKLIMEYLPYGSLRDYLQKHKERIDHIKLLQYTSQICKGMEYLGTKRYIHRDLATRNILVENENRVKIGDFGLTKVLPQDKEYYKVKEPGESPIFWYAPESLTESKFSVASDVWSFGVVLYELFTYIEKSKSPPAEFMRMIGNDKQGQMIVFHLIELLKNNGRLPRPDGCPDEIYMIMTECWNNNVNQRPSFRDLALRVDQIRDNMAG
The experiment can be described thus: JAK2 LanthaScreen JH1 Binding Assay. As to conditions: JAK2 JH1 (1.5 nM), 50 nM fluorescent JAK2-JH1 tracer, 2 hours at 25° C.; read-out: JH1 BIND. The method, boiled down:
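TR-FRET tracer-displacement format: compound IC50 from four-parameter curves after 2 h at 25° C. Reaction held 1.5 nM biotinylated, FLAG-tagged JH1 (aa 826-1132), 50 nM tracer, 0.5 nM Streptavidin-Tb, pH 7.5 Tris buffer; 2 mM ATP set nonspecific background.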

Bounds are passed on as bounds.

T2 sequence (O60674 536-812 V617F/W659A/W777A/F794H): as the sequence (O60674 536-812 W659A/W777A/F794H) above, with V82F counted along it

For `COc1nn(C)cc1-c1[nH]c2ncc3c(c2c1-c1ccc2c(cnn2C)c1)n(C1CCOCC1)c(=O)n3C` [Example 91, 7-(3-methoxy-1-methyl-1H-pyrazol-4-yl)-3-methyl-8-(1-methyl-1H-indazol-5-yl)-1-(tetrahydro-2H-pyran-4-yl)-3,6-dihydroimidazo[4,5-d]pyrrolo[2,3-b]pyridin-2(1H)-one], the IC50 in experiment [1] was not above 10 nM; in experiment [2], not above 10 nM; in experiment [3] it was more than 1000 nM.

For the compound `Cn1c(=O)n(C2CCOCC2)c2c3c(-c4ccc(C5(C#N)CC5)cc4)c(-c4ccc(CN5CCC(S(C)(=O)=O)CC5)cc4)[nH]c3ncc21` [Example 49, 1-(4-(3-Methyl-7-(4-((4-(methylsulfonyl)piperidin-1-yl)methyl)phenyl)-2-oxo-1-(tetrahydro-2H-pyran-4-yl)-1,2,3,6-tetrahydroimidazo [4,5-d]pyrrolo[2,3-b]pyridin-8-yl)phenyl)cyclo-propane-1-carbonitrile], the IC50 is not above 10 nM in experiment [1], not above 10 nM in experiment [2] and 100 to 500 nM in experiment [3].

Consider `Cn1c(=O)n(-c2ccccc2)c2c3cc(-c4ccc(CN5CCC(S(C)(=O)=O)CC5)c(F)c4)[nH]c3ncc21` [Example 8, 7-(3-Fluoro-4-((4-(methylsulfonyl)piperidin-1-yl)methyl)phenyl)-3-methyl-1-phenyl-3,6-dihydroimidazo[4,5-d]pyrrolo[2,3-b]pyridin-2(1H)-one], for which the IC50 was 10 to 100 nM in experiment [1], 100 to 500 nM in experiment [2] and 10 to 100 nM in experiment [3].

For the compound `CC(C)n1c(=O)n(C)c2cnc3[nH]c(C4=CCOCC4)c(-c4ccc(C#N)cc4)c3c21` [Example 38, 4-(7-(3,6-Dihydro-2H-pyran-4-yl)-1-isopropyl-3-methyl-2-oxo-1,2,3,6-tetrahydroimidazo [4,5-d]pyrrolo[2,3-b]pyridin-8-yl)benzonitrile], the IC50 in experiment [1] is 10 to 100 nM; in experiment [2] it was 10 to 100 nM; in experiment [3], more than 1000 nM.

`Cn1c(=O)n(C2CCCCC2)c2c3cc(-c4cnn(CS(C)(=O)=O)c4)[nH]c3ncc21` [Example 12, 1-Cyclohexyl-3-methyl-7-(1-((methylsulfonyl)methyl)-1H-pyrazol-4-yl)-3,6-dihydroimidazo[4,5-d]pyrrolo[2,3-b]pyridin-2(1H)-one]: the IC50 lay in the range of 10 to 100 nM in experiment [1], 100 to 500 nM in experiment [2] and 10 to 100 nM in experiment [3].

Take `COc1ccc(-c2[nH]c3ncc4c(c3c2-c2ccc3c(cnn3C)c2)n(C2CCCC2)c(=O)n4C)cn1` [Example 64, 1-Cyclopentyl-7-(6-methoxypyridin-3-yl)-3-methyl-8-(1-methyl-1H-indazol-5-yl)-3,6-dihydroimidazo[4,5-d]pyrrolo[2,3-b]pyridin-2(1H)-one]: the IC50 is not above 10 nM in experiment [1], 10 to 100 nM in experiment [2] and more than 1000 nM in experiment [3].

For `CC(C)n1c(=O)n(C)c2cnc3[nH]c(-c4cnn(CC(C)(C)O)c4)c(-c4cc5cnc(N6CCNCC6)cc5s4)c3c21` [Example 80, 7-(1-(2-Hydroxy-2-methylpropyl)-1H-pyrazol-4-yl)-1-isopropyl-3-methyl-8-(6-(piperazin-1-yl)thieno[3,2-c]pyridin-2-yl)-3,6-dihydroimidazo[4,5-d]pyrrolo[2,3-b]pyridin-2(1H)-one], the IC50 in experiment [1] was not above 10 nM; in experiment [2] it was not above 10 nM; in experiment [3] it was 100 to 500 nM.

Regarding `CC(C)n1c(=O)n(C)c2cnc3[nH]c(-c4cnn(CS(C)(=O)=O)c4)c(-c4ccccc4)c3c21` [Example 44], the results for the IC50 in experiment [1], in experiment [2] and in experiment [3] were not above 10 nM, not above 10 nM and 100 to 500 nM, respectively.

Take `CC(C)n1c(=O)n(C)c2cnc3[nH]c(-c4cnn(CC(C)(C)O)c4)c(-c4ccc5c(cnn5C)c4)c3c21` [Example 55, 7-(1-(2-Hydroxy-2-methylpropyl)-1H-pyrazol-4-yl)-1-isopropyl-3-methyl-8-(1-methyl-1H-indazol-5-yl)-3,6-dihydroimidazo[4,5-d]pyrrolo[2,3-b] pyridin-2(1H)-one]: the IC50 is not above 10 nM in experiment [1], not above 10 nM in experiment [2] and more than 1000 nM in experiment [3].
